The values below come from patent US10287267B2, “Isoquinolin-3-yl carboxamides and preparation and use thereof” (Samumed, LLC, priority 2016, dated 2019).

Where two headings read alike, the source gives them in different places.

Test [1] has as its system Wnt pathway (Sp5-Luc reporter, TCF/LEF binding sites) in SW480 colon carcinoma cells. As to the kind of experiment: Screening assay for Wnt activity: Sp5-Luc reporter gene assay.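 For all read-outs here: firefly luciferase luminescence read in stably transduced SW480 cells carrying the Sp5 promoter reporter with eight TCF/LEF sites, compounds given in 0.1% DMSO final.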 It counts as cell-based, human. Conditions: Homo sapiens; for EC50: Sp5-Luc reporter, SW480 cells, 36 to 48 hours; for inhibition at 10 µM: SW480, read-out: percent inhibition at 10 μM.
Procedure: The screening assay for Wnt activity is described as follows.
Following incubation, 15 μl of BriteLite Plus luminescence reagent (Perkin Elmer) was added to each well of the 384-well assay plates. The plates were placed on an orbital shaker for 2 min and then luminescence was quantified using the Envision (Perkin Elmer) plate reader.
Test [2] has as its target recombinant DYRK1A kinase (Homo sapiens (Human), UniProt Q13627). Description: DYRK1A kinase assay (Ser/Thr 18 peptide Z-lyte FRET).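 Note: Read-out is the coumarin to fluorescein emission ratio, referenced to unphosphorylated (0%) and phosphorylated (100%) Ser/Thr 18 peptide controls, values from dose-response curves by non-linear regression.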 Conditions: 30 μM ATP, 1 h room temperature. It counts as biochemical.
The next test concerns the target recombinant GSK3β kinase (Homo sapiens (Human), UniProt P49841). Description: GSK3β kinase assay (Ser/Thr 09 peptide Z-lyte FRET).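 Note: kinase activity read as coumarin to fluorescein emission ratio, 11-point threefold dilutions from 10 µM to 0.0003 µM in duplicate, unphosphorylated and phosphorylated peptide as 0% and 100% controls.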 In kind it is biochemical. Conditions: 46 μM ATP, 1 h room temperature.
In test [3] the test system is SW480 colon carcinoma cells. Description: Cell viability assay (CellTiter-Glo). It counts as cell-based, human. Conditions: Homo sapiens; for EC50: 96 h, SW480 cells, CellTiter-Glo, four days incubation; for inhibition at 10 µM: SW480, read-out: percent inhibition at 10 μM. On the technique in general: In ATP-based viability assays light output follows the ATP content of the culture.

Test [4] deals with α-smooth muscle actin (αSMA) positive LL29 cells. As to the kind of experiment: Inhibition of fibrotic process: αSMA in TGF-β1 treated primary human fibroblasts from IPF patients.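 Note: controls were TGF-β1 stimulated wells with DMSO vehicle (positive) and cells given DMSO alone (negative), cultured in F12 medium with 1% fetal bovine serum.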 It counts as cell-based. Conditions: Homo sapiens, Fibroblast, 96 h; Table 8; LL29 fibroblasts from IPF patients, TGF-β1 20 ng/mL, 4 days; dose-response 10 μM to 0.94 nM.
The test system of the next test is IL-6. Description: IL-6 inhibition in LPS-stimulated human peripheral blood mononuclear cells (HTRF).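 For all read-outs here: IL-6 detected by HTRF with an XL665- and Cryptate-labelled anti-IL-6 antibody pair, samples run in duplicate, EC50 obtained from a four-parameter Levenberg-Marquardt curve fit.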 In kind it is cell-based. Conditions: Homo sapiens, PBMC; for EC50: Table 9, huPBMCs, LPS 50 ng/mL, 22 hours, dose-response starting from 10 μM. A general note: In TR-FRET formats the signal depends on donor and acceptor labels being close together.
Test [5] deals with Tau phosphorylation at Ser396 (pSer396). As to the kind of experiment: Tau phosphorylation assay (pSer396 ELISA / western blot) in SH-SY5Y cells.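 Note: EC50 for reduction of Tau pSer396 in lysed cells, measured by colorimetric ELISA or chemiluminescent western blot, both using the same pSer396 antibody.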 In kind it is cell-based, human. Conditions: SH-SY5Y cells.
[6] abbreviates: Homo sapiens, overnight (16-18 h) exposure, read-out: pSer396 Tau EC50.

recombinant GSK3β kinase, sequence (P49841 whole entry): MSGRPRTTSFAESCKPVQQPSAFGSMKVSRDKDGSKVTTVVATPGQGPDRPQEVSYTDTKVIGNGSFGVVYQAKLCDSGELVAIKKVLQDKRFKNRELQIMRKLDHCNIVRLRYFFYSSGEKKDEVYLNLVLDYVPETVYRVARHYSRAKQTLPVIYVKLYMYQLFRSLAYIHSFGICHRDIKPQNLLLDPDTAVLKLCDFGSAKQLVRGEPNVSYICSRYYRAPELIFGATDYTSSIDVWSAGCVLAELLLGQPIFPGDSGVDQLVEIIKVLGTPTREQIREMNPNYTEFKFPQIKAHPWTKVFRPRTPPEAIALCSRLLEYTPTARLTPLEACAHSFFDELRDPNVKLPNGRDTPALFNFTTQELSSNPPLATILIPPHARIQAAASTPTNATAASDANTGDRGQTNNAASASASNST
Procedure for IL-6: After 22 hour incubation, a mixture of anti-IL6 XL665 and anti-IL-6 Cryptate diluted in reconstitution buffer (Catalog #62IL6PEC, Cisbio Inc., Bedford, Mass.) was added to each well. […] All samples were processed in duplicate. […] EC50 was determined using software generated by Dotmatics Limited (Windhill Bishops Stortford Herts, UK) using the Levenberg-Marquardt 4 parameter fitting procedure with finite different gradients.

Regarding `Cc1ncc(-c2ccc3cnc(NC(=O)C4CCCCC4)cc3c2)n1C` [Compound 120, N-(6-(1,2-Dimethyl-1H-imidazol-5-yl)isoquinolin-3-yl) cyclohexanecarboxamide], the EC50 in test [1] came out at 2200 nM; in test [2], 4.8 nM; at recombinant GSK3β kinase, 138 nM; in test [3], 2490 nM; in test [4] it was 2130 nM; with IL-6 it was 2290 nM.

As to `O=C(CN1CCCC1)Nc1cc2cc(-c3cn[nH]c3C(F)(F)F)ccc2cn1` [Compound 287, 2-(Pyrrolidin-1-yl)-N-(6-(5-(trifluoromethyl)-1H-pyrazol-4-yl)isoquinolin-3-yl)acetamide], the EC50 in test [1] is 7330 nM; in test [2] it was 5140 nM; on recombinant GSK3β kinase, 9840 nM; in test [3] it was greater than 10000 nM; in test [4], 2350 nM; with IL-6 it was 9580 nM. In test [3], the inhibition at 10 µM worked out at 47.8%.

As to `Cn1cc(-c2ccc3cnc(NC(=O)C4CCN(S(C)(=O)=O)CC4)cc3c2)cn1` [Compound 330, N-(6-(1-Methyl-1H-pyrazol-4-yl)isoquinolin-3-yl)-1-(methylsulfonyl) piperidine-4-carboxamide], the EC50 in test [1] turned out to be 449 nM; in test [5] (setting [6]) it was 246 nM; in test [3], 6780 nM; in test [4], 20 nM; in the test on IL-6 it was 1160 nM.

For the molecule `Cn1cc(-c2ccc3cnc(NC(=O)N4CN5CCC[C@@H]5C4=O)cc3c2)cn1` [Compound 362, (R)—N-(6-(1-Methyl-1H-pyrazol-4-yl)isoquinolin-3-yl)-1-oxotetrahydro-1H-pyrrolo[1,2-c]imidazole-2(3H)-carboxamide], the EC50 in test [1] was 951 nM; in test [2] it was 132 nM; at recombinant GSK3β kinase, 1100 nM; in test [3] it was 5480 nM; in test [4], 782 nM; in the test on IL-6, 9150 nM.

Regarding `Cc1nnc(-c2ccc3cnc(NC(=O)CN4CCOC[C@H]4C)cc3c2)s1` [Compound 953, (R)—N-(6-(5-Methyl-1,3,4-thiadiazol-2-yl)isoquinolin-3-yl)-2-(3-methylmorpholino)acetamide], the inhibition at 10 µM was found to be 48.7% in test [1] and 40.3% in test [3]. Further, the EC50 in test [1] is greater than 10000 nM; in test [2], 16.8 nM; at recombinant GSK3β kinase, 23 nM; in test [5] (setting [6]) it was 398 nM; in test [3], greater than 10000 nM.

For the molecule `CN1CCC(n2cc(-c3ccc4cnc(NC(=O)C5CCCCC5)cc4c3)cn2)CC1` [Compound 969, N-(6-(1-(1-Methylpiperidin-4-yl)-1H-pyrazol-4-yl)isoquinolin-3-yl) cyclohexanecarboxamide], the EC50 in test [1] was 3930 nM; in test [2], 50 nM; on recombinant GSK3β kinase, 7610 nM; in test [3], 2880 nM; in test [4], 935 nM; with IL-6, 9120 nM.

Consider `CC#CC(=O)Nc1cc2cc(-c3cnn(C)c3)ccc2cn1` [Compound 1026, N-(6-(1-Methyl-1H-pyrazol-4-yl)isoquinolin-3-yl)but-2-ynamide], for which the EC50 in test [1] is 513 nM; in test [2], 5 nM; on recombinant GSK3β kinase it was 508 nM; in test [3] it was 554 nM; in test [4], 2260 nM; in the test with IL-6, 9520 nM.

`Cn1cc(-c2ccc3cnc(NC(=O)[C@H]4CC[C@H](C(=O)O)CC4)cc3c2)cn1` [Compound 1032, trans-4-((6-(1-Methyl-1H-pyrazol-4-yl)isoquinolin-3-yl)carbamoyl) cyclohexane-1-carboxylic acid]: the inhibition at 10 µM in test [1] was determined as 27.4%; in test [3], 34.7%. The EC50 in test [1] was greater than 10000 nM; in test [2], 1.2 nM; at recombinant GSK3β kinase it was 72 nM; in test [3], greater than 10000 nM; in the test on IL-6, 3320 nM.

For the molecule `[2H]C([2H])(C(=O)Nc1cc2cc(-c3nnc(C)s3)ccc2cn1)N1CCOCC1` [Compound 1051, N-(6-(5-Methyl-1,3,4-thiadiazol-2-yl)isoquinolin-3-yl)-2-morpholinoacetamide-2,2-d2], the EC50 in test [1] is 480 nM; in test [2] it was 14.6 nM; on recombinant GSK3β kinase it was 9 nM; in test [5] (setting [6]), 147 nM; in test [3], greater than 10000 nM. Further, the inhibition at 10 µM in test [3] amounted to 22.5%.

With `[2H]C1([2H])OC([2H])([2H])C([2H])([2H])N(CC(=O)Nc2cc3cc(-c4nnc(C)s4)ccc3cn2)C1([2H])[2H]` [Compound 1052, N-(6-(5-Methyl-1,3,4-thiadiazol-2-yl)isoquinolin-3-yl)-2-(morpholino-d8) acetamide], the EC50 in test [1] was 2280 nM; in test [2], 18 nM; at recombinant GSK3β kinase it was 11 nM; in test [5] (setting [6]) it was 254 nM; in test [3], greater than 10000 nM. For the same molecule, the inhibition at 10 µM in test [3] was found to be 40.7%.

For `CC(C)CN1CCC(F)(C(=O)Nc2cc3cc(-n4nccn4)ccc3cn2)CC1` [Compound 1073, N-(6-(2H-1,2,3-triazol-2-yl)isoquinolin-3-yl)-4-fluoro-1-isobutylpiperidine-4-carboxamide], the inhibition at 10 µM worked out at 5.9% in test [1], 8.5% in test [3] and 3.3% in the test with IL-6 (read-out: percent value in parentheses beside EC50 >10 μM). For the same molecule, the EC50 in test [1] was greater than 10000 nM; in test [2], 1520 nM; on recombinant GSK3β kinase, greater than 10000 nM; in test [3] it was greater than 10000 nM; in test [4] it was greater than 10000 nM; in the test with IL-6, greater than 10000 nM.

With `Cn1cc(-c2ccc3cnc(NC(=O)C45CC(CO)(C4)C5)cc3c2)cn1` [Compound 1083, 3-(Hydroxymethyl)-N-(6-(1-methyl-1H-pyrazol-4-yl)isoquinolin-3-yl) bicyclo[1.1.1]pentane-1-carboxamide], the EC50 was 8210 nM in test [1]; 4.2 nM in test [2]; 914 nM on recombinant GSK3β kinase; 901 nM in test [3]; 8730 nM with IL-6.

As for `COC(=O)[C@H]1CC[C@H](C(=O)Nc2cc3cc(-c4cnn(C)c4)ccc3cn2)CC1` [Compound 1084, Methyl trans-4-((6-(1-methyl-1H-pyrazol-4-yl)isoquinolin-3-yl)carbamoyl) cyclohexane-1-carboxylate], the EC50 stood at 3410 nM in test [1]; 1.7 nM in test [2]; 40 nM on recombinant GSK3β kinase; 3670 nM in test [3]; 752 nM in the test with IL-6.

With `[2H]c1nc(NC(=O)C2CCNCC2)cc2cc(-c3cnn(C)c3)ccc12` [Compound 1085, N-(6-(1-Methyl-1H-pyrazol-4-yl)isoquinolin-3-yl-1-d)piperidine-4-carboxamide], the EC50 in test [1] turned out to be 2200 nM; in test [2], 2.4 nM; at recombinant GSK3β kinase, 83 nM; in test [3], 1240 nM; in the test with IL-6 it was 453 nM.

On to `[2H]c1nc(NC(=O)CN2CCCC2)cc2cc(-c3cnn(C)c3)ccc12` [Compound 1093, N-(6-(1-Methyl-1H-pyrazol-4-yl)isoquinolin-3-yl-1-d)-2-(pyrrolidin-1-yl) acetamide], for which the EC50 stood at 1780 nM in test [1], 11.7 nM in test [2], 47 nM on recombinant GSK3β kinase and 422 nM in test [5] (setting [6]).

Take `CCN1/C(=C/C(C)=O)Sc2ccc(O)cc21` [Indy, reference compound]: in test [5] (control DYRK1A inhibitors, read-out: EC50 in the Tau assay), the EC50 was greater than 10000 nM.

For orientation: EC50 means the concentration giving half of the maximal effect.
